These results are taken from patent publication US9890153B2, “Substituted 1H-pyrrolo [2, 3-b] pyridine and 1H-pyrazolo [3, 4-b] pyridine derivatives as salt inducible kinase 2 (SIK2) inhibitors” (Arrien Pharmaceuticals LLC, priority 2012, dated 2018).

What all share (assay type): biochemical
Test [1] concerns the target SIK2 (QIK) (SEQ ID NO: 11) (Homo sapiens, UniProt Q9H0K1). In words: SIK2 kinase assay (radiometric, 10 μM ATP). The conditions noted are these: read-out: SIK2 (QIK) (SEQ ID NO: 11) kinase inhibition result. The method in brief:
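Radiometric filter-binding format: enzyme and substrate peptide incubated with or without compound and ATP mix for 20 min at 30 °C. Reaction stopped with phosphoric acid, captured on filter mats and washed with 0.8% phosphoric acid before counting.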

The target of test [2] is T1, SIK1 (SEQ ID NO: 10) (Homo sapiens, UniProt P57059).
T1 construct: Reaction Biology Corporation (assay service, HotSpot panel)
Briefly: Protein kinase assay, SIK1. The conditions noted are these: read-out: SIK1 (SEQ ID NO: 10) kinase inhibition result. The method in brief: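 Radiometric assay in HEPES pH 7.5 with MgCl2, EGTA, Brij35, BSA, Na3VO4, DTT and 1% DMSO; compound added ~20 min before ATP plus 33P-ATP (10 μM final). IC50 from curve fits.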

For test [3], the target named is T2, SIK3 (QSK) (SEQ ID NO: 24) (Homo sapiens, UniProt Q9Y2K2).
T2 construct: Reaction Biology Corporation (assay service, HotSpot panel)
Briefly: Protein kinase assay, SIK3. The conditions noted are these: read-out: SIK3 (QSK) (SEQ ID NO: 24) kinase inhibition result. As to the method:
Briefly, specific kinase/substrate pairs along with required cofactors were prepared in reaction buffer; 20 mM Hepes (pH 7.5), 10 mMmgCl2, 1 mM EGTA, 0.02% Brij35, 0.02 mg/ml BSA, 0.1 mM Na3VO4, 2 mM DTT, 1% DMSO. Compounds were delivered into the reaction, followed ˜20 min later by addition of a mixture of ATP (Sigma) and 33P ATP (PerkinElmer) to a final concentration of 10 μM. […] IC50 values and curve fits were obtained using Prism (GraphPad Software). Kinome tree representations were prepared using Kinome Mapper (http://www.reactionbiology.com/apps/kinome/mapper/LaunchKinome.htm).

Bounds are passed on as bounds.

T1 sequence (P57059 whole entry): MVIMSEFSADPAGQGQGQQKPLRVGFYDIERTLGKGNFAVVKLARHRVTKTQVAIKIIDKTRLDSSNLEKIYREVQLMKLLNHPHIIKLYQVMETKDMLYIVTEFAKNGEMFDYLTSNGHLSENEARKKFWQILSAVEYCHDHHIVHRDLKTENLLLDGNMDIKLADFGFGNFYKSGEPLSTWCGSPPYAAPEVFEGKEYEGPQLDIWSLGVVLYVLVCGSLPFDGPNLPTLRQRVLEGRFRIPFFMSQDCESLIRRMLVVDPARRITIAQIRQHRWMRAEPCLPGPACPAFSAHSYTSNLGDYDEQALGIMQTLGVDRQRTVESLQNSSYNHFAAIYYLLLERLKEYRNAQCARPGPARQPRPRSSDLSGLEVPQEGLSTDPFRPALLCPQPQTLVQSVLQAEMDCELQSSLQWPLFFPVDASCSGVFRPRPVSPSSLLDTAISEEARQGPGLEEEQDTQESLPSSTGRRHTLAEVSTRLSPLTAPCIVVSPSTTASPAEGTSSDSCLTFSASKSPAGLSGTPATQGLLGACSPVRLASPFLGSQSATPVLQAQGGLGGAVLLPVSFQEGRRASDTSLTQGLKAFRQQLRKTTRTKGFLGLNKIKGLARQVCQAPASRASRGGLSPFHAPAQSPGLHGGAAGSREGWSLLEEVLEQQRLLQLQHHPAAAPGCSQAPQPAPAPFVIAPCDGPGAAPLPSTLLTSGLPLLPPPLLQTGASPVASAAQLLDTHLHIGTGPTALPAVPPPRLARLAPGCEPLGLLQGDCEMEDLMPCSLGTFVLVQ
T2 sequence (Q9Y2K2 whole entry): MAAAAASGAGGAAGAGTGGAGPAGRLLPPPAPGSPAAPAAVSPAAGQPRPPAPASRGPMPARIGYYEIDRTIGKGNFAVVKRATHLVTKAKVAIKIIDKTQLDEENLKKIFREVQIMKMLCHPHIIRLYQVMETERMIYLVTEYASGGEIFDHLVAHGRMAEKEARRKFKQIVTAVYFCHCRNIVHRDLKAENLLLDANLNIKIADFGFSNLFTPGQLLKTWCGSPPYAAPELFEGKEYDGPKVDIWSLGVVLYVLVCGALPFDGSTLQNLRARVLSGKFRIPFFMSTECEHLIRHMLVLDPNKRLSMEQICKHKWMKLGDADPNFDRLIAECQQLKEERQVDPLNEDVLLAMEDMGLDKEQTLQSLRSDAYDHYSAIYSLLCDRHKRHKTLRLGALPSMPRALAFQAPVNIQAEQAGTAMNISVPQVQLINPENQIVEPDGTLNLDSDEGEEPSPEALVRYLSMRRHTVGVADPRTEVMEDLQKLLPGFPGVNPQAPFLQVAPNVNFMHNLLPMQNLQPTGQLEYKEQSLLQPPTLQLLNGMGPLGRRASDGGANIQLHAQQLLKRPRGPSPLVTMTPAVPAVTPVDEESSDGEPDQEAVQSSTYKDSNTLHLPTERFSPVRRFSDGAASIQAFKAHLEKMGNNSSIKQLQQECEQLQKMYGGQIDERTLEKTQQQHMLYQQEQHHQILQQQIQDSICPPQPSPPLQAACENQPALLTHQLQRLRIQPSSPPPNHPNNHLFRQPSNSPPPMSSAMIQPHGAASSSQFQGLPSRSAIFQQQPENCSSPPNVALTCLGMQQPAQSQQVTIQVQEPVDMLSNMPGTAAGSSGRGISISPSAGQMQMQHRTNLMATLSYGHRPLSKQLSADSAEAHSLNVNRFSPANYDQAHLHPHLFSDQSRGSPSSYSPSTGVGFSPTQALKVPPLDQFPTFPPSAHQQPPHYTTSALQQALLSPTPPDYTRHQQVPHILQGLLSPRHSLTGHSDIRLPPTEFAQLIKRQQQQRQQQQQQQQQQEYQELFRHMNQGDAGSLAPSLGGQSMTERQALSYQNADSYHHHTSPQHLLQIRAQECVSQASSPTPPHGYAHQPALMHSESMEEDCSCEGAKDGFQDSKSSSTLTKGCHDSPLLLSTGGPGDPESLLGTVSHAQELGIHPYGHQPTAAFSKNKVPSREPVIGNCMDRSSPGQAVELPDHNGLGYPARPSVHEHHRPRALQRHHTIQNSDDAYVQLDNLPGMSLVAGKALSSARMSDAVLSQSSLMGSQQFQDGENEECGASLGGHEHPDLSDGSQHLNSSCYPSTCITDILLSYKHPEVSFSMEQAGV
SIK2 (QIK) (SEQ ID NO: 11), sequence (Q9H0K1 whole entry): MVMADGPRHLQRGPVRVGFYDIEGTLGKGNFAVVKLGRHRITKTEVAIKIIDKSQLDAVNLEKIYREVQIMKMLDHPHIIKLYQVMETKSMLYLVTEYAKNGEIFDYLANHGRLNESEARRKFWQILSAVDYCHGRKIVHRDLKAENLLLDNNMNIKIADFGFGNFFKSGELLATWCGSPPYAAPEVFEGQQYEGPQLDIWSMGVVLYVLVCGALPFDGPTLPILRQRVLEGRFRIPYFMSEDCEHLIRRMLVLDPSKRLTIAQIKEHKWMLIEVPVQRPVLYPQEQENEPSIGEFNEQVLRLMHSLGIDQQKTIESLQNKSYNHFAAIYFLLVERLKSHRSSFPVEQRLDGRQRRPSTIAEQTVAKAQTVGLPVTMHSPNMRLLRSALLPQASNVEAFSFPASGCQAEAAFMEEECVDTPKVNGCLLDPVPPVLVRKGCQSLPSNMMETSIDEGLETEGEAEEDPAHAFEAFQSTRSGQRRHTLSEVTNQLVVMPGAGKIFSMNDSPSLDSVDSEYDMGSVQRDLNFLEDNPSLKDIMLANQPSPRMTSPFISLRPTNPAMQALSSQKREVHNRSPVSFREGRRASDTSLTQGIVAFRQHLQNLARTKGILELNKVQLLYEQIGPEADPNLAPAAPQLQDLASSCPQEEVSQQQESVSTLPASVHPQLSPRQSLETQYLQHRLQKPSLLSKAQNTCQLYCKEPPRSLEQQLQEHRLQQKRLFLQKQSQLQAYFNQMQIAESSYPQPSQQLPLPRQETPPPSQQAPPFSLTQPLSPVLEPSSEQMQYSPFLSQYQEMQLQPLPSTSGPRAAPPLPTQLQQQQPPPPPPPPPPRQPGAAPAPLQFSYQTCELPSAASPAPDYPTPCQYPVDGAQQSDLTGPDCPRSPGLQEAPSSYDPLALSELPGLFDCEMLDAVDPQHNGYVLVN

Regarding `FC1(F)Oc2ccc(-c3c[nH]c4ncc(-c5ccc(CN6CCOCC6)s5)cc34)cc2O1` [Example 200], the IC50 in test [1] is less than 100 nM; in test [2], greater than 100 nM; in test [3], less than 100 nM.
On to `FC1(F)Oc2ccc(-c3c[nH]c4ncc(-c5cnc(N6CCOCC6)s5)cc34)cc2O1` [Example 201, 4-(5-(3-(2,2-difluorobenzo[d][1,3]dioxol-5-yl)-1H-pyrrolo[2,3-b]pyridin-5-yl)thiazol-2-yl)morpholine], for which the IC50 in test [1], in test [2] and in test [3] was greater than 1000 nM each time.
On to `CN(C(C)(C)C)S(=O)(=O)c1cccc(-c2cnc3[nH]cc(-c4ccc5c(c4)OC(F)(F)O5)c3c2)c1` [Example 202, N-(tert-butyl)-3-(3-(2,2-difluorobenzo[d][1,3]dioxol-5-yl) 1H-pyrrolo[2,3-b]pyridin-5-yl)-N-methylbenzenesulfonamide], for which the IC50 in test [1] was less than 100 nM; in test [2] it was greater than 100 nM; in test [3] it was less than 100 nM.
In the case of `FC1(F)Oc2ccc(-c3c[nH]c4ncc(-c5ccc(CN6CCCC6)s5)cc34)cc2O1` [Example 203, 3-(2,2-difluorobenzo[d][1,3]dioxol-5-yl)-5-(5-(pyrrolidin-1-ylmethyl)thiophen-2-yl)-1H-pyrrolo[2,3-b]pyridine], the IC50 was less than 100 nM in test [1], greater than 1000 nM in test [2] and greater than 1000 nM in test [3].
As for `FC1(F)Oc2ccc(-c3c[nH]c4ncc(-c5ccc(CN6CCCCC6)s5)cc34)cc2O1` [Example 204, 3-(2,2-difluorobenzo[d][1,3]dioxol-5-yl)-5-(5-(piperidin-1-ylmethyl)thiophen-2-yl)-1H-pyrrolo[2,3-b]pyridine], the IC50 is less than 100 nM in test [1], greater than 100 nM in test [2] and less than 100 nM in test [3].
`FC1(F)Oc2ccc(-c3c[nH]c4ncc(-c5csc(N6CCOCC6)n5)cc34)cc2O1` [Example 205, 4-(4-(3-(2,2-difluorobenzo[d][1,3]dioxol-5-yl)-1H-pyrrolo[2,3-b]pyridin-5-yl)thiazol-2-yl)morpholine]: the results for the IC50 in test [1], in test [2] and in test [3] were less than 100 nM, greater than 100 nM and less than 100 nM, respectively.
In the case of `FC1(F)Oc2ccc(-c3c[nH]c4ncc(-c5cnn(C6CCNCC6)c5)cc34)cc2O1` [Example 206, 3-(2,2-difluorobenzo[d][1,3]dioxol-5-yl)-5-(1-(piperidin-4-yl)-1H-pyrazol-4-yl)-1H-pyrrolo[2,3-b]pyridine], the figures for the IC50 in test [1], in test [2] and in test [3] were less than 100 nM, greater than 100 nM and less than 100 nM, respectively.
As to `COc1c(F)cccc1-c1c[nH]c2ncc(-c3csc(N4CCOCC4)n3)cc12` [Example 207, 4-(4-(3-(3-fluoro-2-methoxyphenyl)-1H-pyrrolo[2,3-b]pyridin-5-yl)thiazol-2-yl)morpholine], the results for the IC50 in test [1], in test [2] and in test [3] were less than 100 nM, greater than 100 nM and less than 100 nM, respectively.
On to `COc1c(F)cc(F)cc1-c1c[nH]c2ncc(-c3csc(N4CCOCC4)n3)cc12` [Example 208, 4-(4-(3-(3,5-difluoro-2-methoxyphenyl)-1H-pyrrolo[2,3-b]pyridin-5-yl)thiazol-2-yl)morpholine], for which the IC50 is less than 100 nM in test [1], greater than 100 nM in test [2] and less than 100 nM in test [3].
For the molecule `FC1(F)Oc2cccc(-c3c[nH]c4ncc(-c5cnn(C6CCNCC6)c5)cc34)c2O1` [Example 209, 3-(2,2-difluorobenzo[d][1,3]dioxol-4-yl)-5-(1-(piperidin-4-yl)-1H-pyrazol-4-yl)-1H-pyrrolo[2,3-b]pyridine], the IC50 in test [1], in test [2] and in test [3] was less than 100 nM throughout.
Take `O=C(c1c(F)cccc1F)c1c[nH]c2ncc(-c3cnn(C4CCNCC4)c3)cc12` [Example 210, (2,6-difluorophenyl)(5-(1-(piperidin-4-yl)-1H-pyrazol-4-yl)-1H-pyrrolo[2,3-b]pyridin-3-yl)methanone]: the results for the IC50 in test [1], in test [2] and in test [3] were less than 100 nM, greater than 100 nM and less than 100 nM, respectively.
Take `COc1c(F)cc(F)cc1-c1c[nH]c2ncc(-c3cnn(S(=O)(=O)N4CCN(C)CC4)c3)cc12` [Example 211, 3-(3,5-difluoro-2-methoxyphenyl)-5-(1-((4-methylpiperazin-1-yl)sulfonyl)-1H-pyrazol-4-yl)-1H-pyrrolo[2,3-b]pyridine]: the values for the IC50 in test [1], in test [2] and in test [3] were less than 100 nM, greater than 100 nM and less than 100 nM, respectively.
On to `COc1c(F)cc(F)cc1-c1c[nH]c2ncc(-c3cnn(C4CCN(C)CC4)c3)cc12` [Example 212, 3-(3,5-difluoro-2-methoxyphenyl)-5-(1-(1-methylpiperidin-4-yl)-1H-pyrazol-4-yl)-1H-pyrrolo[2,3-b]pyridine], for which the IC50 in test [1] was less than 100 nM; in test [2], greater than 100 nM; in test [3], less than 100 nM.
Take `O=C(c1c(F)cccc1F)c1c[nH]c2ncc(-c3cnc(N4CCOCC4)s3)cc12` [Example 213, (2,6-difluorophenyl)(5-(2-morpholinothiazol-5-yl)-1H-pyrrolo[2,3-b]pyridin-3-yl)methanone]: the IC50 is less than 100 nM in test [1], greater than 100 nM in test [2] and less than 100 nM in test [3].
Turning to `CCS(=O)(=O)N1CCC(n2cc(-c3cnc4[nH]cc(-c5cc(F)cc(F)c5OC)c4c3)cn2)CC1` [Example 215, 3-(3,5-difluoro-2-methoxyphenyl)-5-(1-(1-(ethylsulfonyl)piperidin-4-yl)-1H-pyrazol-4-yl)-1H-pyrrolo[2,3-b]pyridine], the IC50 in test [1] was greater than 100 nM; in test [2] it was greater than 1000 nM; in test [3], greater than 100 nM.
Turning to `CCCS(=O)(=O)N1CCC(n2cc(-c3cnc4[nH]cc(-c5cc(F)cc(F)c5OC)c4c3)cn2)CC1` [Example 216, 3-(3,5-difluoro-2-methoxyphenyl)-5-(1-(1-(propylsulfonyl)piperidin-4-yl)-1H-pyrazol-4-yl)-1H-pyrrolo[2,3-b]pyridine], the IC50 is greater than 100 nM in test [1], greater than 1000 nM in test [2] and greater than 100 nM in test [3].
On to `COc1c(F)cc(F)cc1-c1c[nH]c2ncc(-n3cc(N4CCN(S(C)(=O)=O)CC4)cn3)cc12` [Example 217, 3-(3,5-difluoro-2-methoxyphenyl)-5-(4-(4-(methylsulfonyl)piperazin-1-yl)-1H-pyrazol-1-yl)-1H-pyrrolo[2,3-b]pyridine], for which the IC50 in test [1] was less than 100 nM; in test [2], greater than 100 nM; in test [3] it was less than 100 nM.
On to `COc1c(F)cc(F)cc1-c1c[nH]c2ncc(-n3cc(N4CCN(CCO)CC4)cn3)cc12` [Example 218, 2-(4-(1-(3-(3,5-difluoro-2-methoxyphenyl)-1H-pyrrolo[2,3-b]pyridin-5-yl)-1H-pyrazol-4-yl)piperazin-1-yl)ethanol], for which the values for the IC50 in test [1], in test [2] and in test [3] were less than 100 nM, greater than 100 nM and less than 100 nM, respectively.
Turning to `CN1CCN(S(=O)(=O)n2cc(-c3cnc4[nH]cc(-c5ccc6c(c5)OC(F)(F)O6)c4c3)cn2)CC1` [Example 219, 3-(2,2-difluorobenzo[d][1,3]dioxol-5-yl)-5-(1-((4-methylpiperazin-1-yl)sulfonyl)-1H-pyrazol-4-yl)-1H-pyrrolo[2,3-b]pyridine], the IC50 in test [1] was less than 100 nM; in test [2], greater than 100 nM; in test [3], less than 100 nM.
Turning to `CN1CCC(n2cc(-c3cnc4[nH]cc(-c5ccc6c(c5)OC(F)(F)O6)c4c3)cn2)CC1` [Example 220, 3-(2,2-difluorobenzo[d][1,3]dioxol-5-yl)-5-(1-(1-methylpiperidin-4-yl)-1H-pyrazol-4-yl)-1H-pyrrolo[2,3-b]pyridine], the IC50 in test [1] was greater than 100 nM; in test [2], greater than 1000 nM; in test [3], greater than 1000 nM.
As for `CS(=O)(=O)N1CCC(n2cc(-c3cnc4[nH]cc(-c5ccc6c(c5)OC(F)(F)O6)c4c3)cn2)CC1` [Example 221, 3-(2,2-difluorobenzo[d][1,3]dioxol-5-yl)-5-(1-(1-(methylsulfonyl)piperidin-4-yl)-1H-pyrazol-4-yl)-1H-pyrrolo[2,3-b]pyridine], the IC50 in test [1], in test [2] and in test [3] was greater than 1000 nM in each case.
`CCS(=O)(=O)N1CCC(n2cc(-c3cnc4[nH]cc(-c5ccc6c(c5)OC(F)(F)O6)c4c3)cn2)CC1` [Example 222, 3-(2,2-difluorobenzo[d][1,3]dioxol-5-yl)-5-(1-(1-(ethylsulfonyl)piperidin-4-yl)-1H-pyrazol-4-yl)-1H-pyrrolo[2,3-b]pyridine]: the IC50 in test [1], in test [2] and in test [3] was greater than 1000 nM each time.
With `CCCS(=O)(=O)N1CCC(n2cc(-c3cnc4[nH]cc(-c5ccc6c(c5)OC(F)(F)O6)c4c3)cn2)CC1` [Example 223, 3-(2,2-difluorobenzo[d][1,3]dioxol-5-yl)-5-(1-(1-(propylsulfonyl)piperidin-4-yl)-1H-pyrazol-4-yl)-1H-pyrrolo[2,3-b]pyridine], the IC50 in test [1], in test [2] and in test [3] was greater than 1000 nM throughout.
